From patent publication US20110218191A1, “USE OF MELOXICAM FOR THE LONG TERM-TREATMENT OF KIDNEY DISORDERS IN CATS” (BOEHRINGER INGELHEIM VETMEDICA GMBH, priority 2010, published 2011)

What was measured:
[1] = system: aged cats with chronic kidney disease (CKD), IRIS stage 1-3; assay: Retrospective case-controlled study: long-term meloxicam in aged cats with CKD (Group A) vs age and IRIS matched untreated controls (Group C); type: in vivo, cat
Description: The diagnosis of osteoarthritis or spondylosis deformans had been made based upon any two of the following: owner noted mobility changes, physical examination findings or radiographic changes. […] In addition, cats were only included if serum biochemistry, urine analysis and body weight had been regularly monitored. […]
In house urine specific gravity was determined with a Reichert Vet360 refractometer. Urine specific gravity was regularly compared to that measured by the same reference laboratory. […]

[2] = system: aged cats without chronic kidney disease (no-CKD); assay: Retrospective case-controlled study: long-term meloxicam in aged cats without CKD (Group B) vs age matched untreated controls (Group D); type: in vivo, cat
Excerpt: The medical records of a feline-only practice were searched for cats with OA being treated with meloxicam during a 4 year period. A diagnosis of OA was based upon any two of the following: owner noted mobility changes and/or physical examination findings or radiographic changes. Cats included were older than 7 years and treated with meloxicam for a duration of more than 6 months. Biochemistry, urinalysis and body weight were regularly monitored. The progression of renal disease in the aged non-renal and renal group treated was compared to age matched and IRIS matched untreated controls from the same clinic. IRIS staging of CKD follows specific guidelines on the diagnosis and assessment of progression of renal disease in small animals as described below. Animals are being divided into […] categories according to the stage of their disease, see Table 1 (iris-kidney.com).
The database of a feline-only practice in suburban Melbourne was searched for cats which had been treated for chronic musculoskeletal diseases with meloxicam (Metacam® oral suspension, Boehringer Ingelheim) during a 4 year period. The diagnosis of osteoarthritis or spondylosis deformans had been made based upon any two of the following: owner noted mobility changes, physical examination findings or radiographic changes. The inclusion criteria included cats greater than 7 years old which had been treated continuously with meloxicam for a duration of more than 6 months and which had complete medical records available for review. In addition, cats were only included if serum biochemistry, urine analysis and body weight had been regularly monitored.
Young cats were excluded, as were cats with no pre-treatment renal parameter measurements. In addition cats were also excluded if the owner could not be contacted to check that the cats were still receiving daily treatment with meloxicam.
Age, breed, sex, concomitant diseases and medications as well as date treatment commenced, treatment duration and daily dose of meloxicam were recorded.
The majority of serum biochemistry determination was via external reference laboratory (Normal Range: Creatinine 0.08-0.20 mmol/L) and the remainder with an in-house IDEXX biochemistry and electrolyte machine (Normal Range: Creatinine 71-212 umol/L). In house urine specific gravity was determined with a Reichert Vet360 refractometer. Urine specific gravity was regularly compared to that measured by the same reference laboratory. Urine sediment examination and dipstick determination was carried out in-house with necessary urine cultures and urine protein. Urine creatinine determination was carried out at the same reference laboratory. […]
The median age of the renal and non-renal treated cats, median treatment duration and median maintenance dose was calculated. […]

## Cc1cnc(NC(=O)C2=C(O)c3ccccc3S(=O)(=O)N2C)s1 [meloxicam]
[1]; CKD-meloxicam group (A) vs age and IRIS matched untreated CKD group (C), time adjusted AUC, Wilcoxon rank-sum-test
  differences from baseline in body weight: no statistically significant differences
[1]; renal treated group (A), oral suspension
  median maintenance dose after dose titration to the lowest effective dose: 0.02 mg/kg daily
[2]; meloxicam treated no-CKD group (B) vs untreated no-CKD group
  progression of creatinine: no significant difference
[2]; no-CKD meloxicam group (B) vs untreated no-CKD group (D), time adjusted AUC, Wilcoxon rank-sum-test
  differences from baseline in body weight: no statistically significant differences
[2]; non-renal group treated with meloxicam (B) vs non-renal group not treated, median maintenance dose 0.02 mg/kg daily, median treatment duration 327 days
  progression of renal parameters: no differences
[2]; non-renal treated group (B), oral suspension
  median maintenance dose after dose titration to the lowest effective dose: 0.02 mg/kg daily
